Laboratory results reported in patent US20110200531A1, “TREATMENT AND DIAGNOSIS OF CENTRAL NERVOUS SYSTEM DISORDERS” (THE REGENTS OF THE UNIVERSITY OF CALIFORNIA, priority 2009, published 2011).
“Also recorded” adds a separate entry of the source.

Columns and labels:
Tg2576 mice = assay: Aβ-related vaccinations in Tg2576 mice: retinal and brain pathology; format: in vivo; conditions: for Aβ deposits in hippocampal and neocortical areas of brain (6E10) / Aβ immunoreactivity in retinal microvessels / retinal amyloid angiopathy score: 10-month vaccination; for Aβ immunoreactivity in retinal microvessels / retinal amyloid angiopathy score: Aβ and vWF double-labeled microvessels, vs sham-immunized Tg2576
Experimental: The Aβ oligomer antigen was prepared from Aβ1-40 based on our previously published work (Kayed et al., 2003). Briefly, lyophilized Aβ1-40 peptides were resuspended in 50% acetonitrile in water and relyophilized. Soluble prefibrillar oligomers were prepared by dissolving 1.0 mg of peptide in 400 μl of hexafluoroisopropanol for 10˜20 minutes at room temperature. The resultant seedless solution (100 μl) was added to 900 μl of MilliQ H2O in a siliconized Eppendorf tube. After 10˜20 minutes incubation at room temperature, the samples were centrifuged for 15 minutes at 14,000×g, and the supernatant fraction (pH 2.8˜3.5) was transferred to a new siliconized tube and subjected to a gentle stream of N2 for 5˜10 minutes to evaporate the hexafluoroisopropanol. […] Oligomers were validated by atomic force microscopy, electron microscopy, and size exclusion chromatography as described previously (Kayed et al., 2003). The Aβ fibril was prepared from Aβ1-42, because it is more fibrillogenic as compared with Aβ1-40. Aβ1-40, predominantly in fibrillary form, was previously studied in a randomized, double-blind, placebo-controlled phase 2a clinical trial, study AN1792(QS-21)-201 by Gilman and colleagues (Gilman et al., 2005). Fibrils were formed by dissolving the lyophilized Aβ1-42 in 50% hexafluoroisopropanol and stirred with closed caps for 7 days. Solution is stirred again for 2 days in capped tubes with 20-gauge needle holes on the top to allow the hexafluoroisopropanol to evaporate. This whole preparation was done in a fume food to accelerate evaporation and minimize falling of dust or other foreign material. Fibrils were precipitated by centrifugation for 15 minutes at 14,000 rpm and washed in PBS, and resuspended at 2 mg/ml. For the prefibrillar oligomer antigen, Aβ oligomer (AO) molecular mimic was prepared by conjugating Aβ1-40 via a C-terminal thioester to 5-nm colloidal gold as described previously (Kayed and Glabe, 2006). […] Immunization schemes were conducted in a similar way as described previously (Zhou et al., 2005). […] Administration of an equivalent volume of PBS with the adjuvant but without any peptide antigen to both wild-type and transgenic mice was used as control. All experimental procedures were performed under protocols approved by the University of California Irvine Institutional Animal Care and Use Committee. Tissue Preparation: Mice were deeply anesthetized with an overdose of Nembutal (100 mg/kg, i.p.) and perfused transcardially with ice-cold PBS. The eyes were directly collected and fixed overnight with 4% paraformaldehyde in PBS (pH 7.4, 4° C.) following brain removal. Fixed eyes were stored in PBS containing 20% sucrose and 0.05% sodium azide (NaN3) at 4° C. until use. Following removal of lenses with forceps fixed eyes were cryomolded with OCT. Cross-retinal cryostat sections (12 μm) were thaw-mounted onto “Superfrost plus” glass slides (Fisher, Tustin, Calif.), air-dried for 30 minutes and stored at 4° C. before staining. […] Immunohistochemistry and Quantification: […] The immunoreactivity of APP, hyperphosphorylated tau (AT8), and Aβ in selected sections was also detected using the avidin-biotin complex method, followed by staining with DAB and brief counterstaining with hematoxylin. […] The results were evaluated by either fluorescence or conventional microscopy with a Leica DM microscope. Images were recorded using a Spot II charge-coupled device camera with equal exposure times for all different groups of tissues. […]

[1] = system: SH-SY5Y human neuroblastoma cells; assay: Survival of SH-SY5Y cells following exposure to hydrogen peroxide; format: cell-based; conditions: for cell survival following exposure to hydrogen peroxide: SH-SY5Y, 25-50 μM, hydrogen peroxide 10-100 μM; for oxidative stress measured by production of malondialdehyde (MDA) and hydrogen peroxide: cultured cells (cell type not specified); for difference in protective efficacy between the two differently-sourced TMP compounds: statistical analysis, TMP-N vs TMP-S
5×FAD mouse retinas = assay: Retinal ganglion cell (RGC) quantification in 5×FAD mouse retinas; format: in vivo, mice; conditions: chow containing 300 mg/Kg from postnatal day 61 for 4 months
Experimental: FIG. 24: Preservation of retinal ganglion cells (RGC) in 5×FAD mice by TMP (see Section 6.3.1). Numbers of RGC of wild-type, control (Vehicle) and TMP-treated mice were quantified.
5×FAD mice and wild type littermates (control) were fed with normal chow (Vehicle) or chow containing 300 mg/Kg of either TMP-N or TMP-S (see Section 6.3.1) from postnatal day 61 for exactly 4 months until the day of analysis. RGC cells were quantified in cross retinal sections as described in Liu et al., American Journal of Pathology, 2009.

5×FAD mice = assay: Novel object recognition task in 5×FAD mice; format: in vivo; conditions: chow containing 300 mg/Kg from postnatal day 61 for 4 months; N=8-12
Experimental: FIG. 22: Improvement of memory in 5×FAD mice by synthetic form of TMP treatments. Novel object recognition task was performed and depicted as FIG. 21.
Wild type littermates were used for comparison. All the mice were fed with normal chow (Vehicle) or containing 300 mg/Kg either TMP-N or TMP-S from postnatal day 61 for exactly 4 months until the day for the completion of behavioral assessments.

mouse primary neurons = assay: Survival of mouse primary neurons following exposure to hydrogen peroxide; format: cell-based; conditions: 25-50 μM, hydrogen peroxide 10-100 μM
3×Tg-AD mice = assay: Learning and memory in 3×Tg AD mice (novel object recognition, Morris water maze); format: in vivo; conditions: 16-month old 3×Tg-AD females
Experimental: Both 16-month old 3×Tg-AD and background-matched wild type (WT) mice (females) were fed with TMPcontaining or nutrients matched control for 60 days as described in FIG. 3. (A) On day 61, all the mice were tested for object recognition as previously described. Briefly, mice (n=14 for each group) were habituated to a 60×30 cm container for 5 min. Two identical objects were placed in the bottom of the cage as mirror images of each other. The animal was trained for 5 min followed by a 5 min retention interval in the home cage. Then one of the objects in the test container was replaced with a novel object. During the 3-min probe trial, the mouse was placed in the cage and time spent investigating both objects was measured. A recognition index (R1) score is depicted as: (TimeN (in seconds for novel object)/TimeTotal (in seconds for both old and novel objects))×100. (B-D) Starting on day 62, all the mice were trained for 9 days on the Morris water maze (MWM) exactly as described for the behavior testing. […] (C) MWMprobe trial for number of platform location crosses, and (D) MWM probe trial for time spent in the target quadrant. As shown by the p values, (*) indicates significant improvement by TMP treatments with respect to the corresponding controls.
FIG. 21A-D: Improvement of learning and memory in aged 3×Tg AD mice by TMP treatment. Novel object recognition task was performed. A recognition index (R1) score is depicted as: [TimeN (in seconds for novel object)/TimeTotal (in seconds for both old and novel objects)]×100. B-D Starting on day 62, all the mice were trained for 9 days on the Morris water maze (MWM) for the behavior testing. […] (C) MWM probe trial for number of platform location crosses, and (D) MWM probe trial for time spent in the target quadrant. As shown by the p values, (*) indicates significant improvement by the compound treatments with respect to the corresponding controls.
TMP improves pathology in brains of 3×Tg-AD mice and results in increased memory and learning (See FIGS. 3, 4, and 10). In these mice, the earliest pathological hallmark is the accumulation of intraneuronal Aβ in the hippocampus, cortex and amygdala in 4 month old 3×Tg-AD homozygous mice. […] Between 4-6 months of age 3×Tg-AD homozygous mice develop diffuse amyloid plaques in the neocortex. At 6 months the retention deficits are associated with significant impairments in spatial learning of the Morris Water Maze task. […] Brain and retina pathology was evaluated by immunohistochemistry with specific antibodies and learning and memory performance were scored using the Novel Object Recognition Task and using Morris Water Maze trials.
The ability of TMP-N to improve learning and memory in 3×Tg AD mice was assessed using novel object recognition task. […]

5×FAD mouse brains = assay: Abeta immunoreactivity (6E10) in 5×FAD mouse brains; format: in vivo, mice; conditions: chow containing 300 mg/Kg from postnatal day 61 for 4 months
Excerpt: Animal tissues were perfused with 1×PBS followed by overnight fixation in 4% paraformaldehyde in cold room. Vibrotome sections (˜50 μm thick) were immunostained with 6E10 antibody, which recognizes all forms of Abeta, and visualized by fluorescence microscopy.

| Molecule | Aβ deposits in hippocampal and neocortical areas of brain (6E10) (Tg2576 mice) | Aβ immunoreactivity in retinal microvessels / retinal amyloid angiopathy score (Tg2576 mice) | cell survival following exposure to hydrogen peroxide [1] | oxidative stress measured by production of malondialdehyde (MDA) and hydrogen peroxide [1] | difference in protective efficacy between the two differently-sourced TMP compounds [1] | number of retinal ganglion cells (RGC) (5×FAD mouse retinas) | memory performance, novel object recognition task (5×FAD mice) | cell survival following exposure to hydrogen peroxide (mouse primary neurons) | number of Aβ plaques / Aβ deposits in retina (Tg2576 mice; 100 μg s.c. with incomplete Freund's adjuvant once a month for 10 months, vs PBS adjuvant) | Morris water maze (MWM) acquisition performance (3×Tg-AD mice; TMP diet 60 days, trained 9 days from day 62) | learning and memory (object recognition, MWM probe trials) (3×Tg-AD mice; TMP-containing diet) | Abeta immunoreactivity / deposits in brain (6E10) (5×FAD mouse brains) |
| --- | --- | --- | --- | --- | --- | --- | --- | --- | --- | --- | --- | --- |
| AF: Aβ fibril prepared from Aβ1-42; vaccine immunogen | notably less Aβ deposits | even greater Aβ immunoreactivity |  |  |  |  |  |  |  |  |  |  |
| Cc1nc(C)c(C)nc1C [TMP-S, tetramethylpyrazine] |  |  | significantly increased cell survival | remarkable reduction of oxidative stress | no significant difference | significantly preserved RGC; also recorded: significantly increased number of RGC | significantly improved memory performance; also recorded: significantly improved this performance | significantly increased cell survival |  |  |  |  |
| AO: Aβ oligomer molecular mimic prepared by conjugating Aβ1-40 via a C-terminal thioester to 5-nm colloidal gold; vaccine immunogen | notably less Aβ deposits | even greater Aβ immunoreactivity |  |  |  |  |  |  | significant reduction in the number of Aβ plaques |  |  |  |
| Cc1nc(C)c(C)nc1C [TMP-N, tetramethylpyrazine] |  |  | significantly increased cell survival | remarkable reduction of oxidative stress | no significant difference | slightly preserved RGC; also recorded: slight protective effect on RGC | some negative effects; also recorded: slight negative effect on the memory performance | significantly increased cell survival |  | significantly improved the performance of 3×Tg-AD mice | significantly restored learning and memory | Abeta deposits were decreased in both cortical and hippocampal regions |
